From patent publication US5846936A, “Growth hormone releasing factor analogs” (Roche Vitamins Inc., priority 1995, dated 1998)
Where a SMILES comes first, the peptide text is derived from it. Where no end group is shown, it is not given here. [ ]: non-standard residue; d: D form. The star is where a group is joined. Desaminotyrosyl = O=C(CCc1ccc(O)cc1)*

Tested on: rat pituitary cells
Experiment: not given
Assay type: cell-based
Settings: not given
Description: The biological activity of the novel peptides were compared with that of a synthetic standard of the natural sequence of GRF(1-44)-NH2 (SEQ ID NO: 1-NH2) which was isolated from a human pancreatic tumor of an individual suffering from acromegaly (Salk Institute standard hp-GRF-NH2 (NL-A-10)). The assay for biological activity, which is based on the ability to stimulate production of growth hormone in rat pituitary cells in tissue culture, was performed in the following manner. Pituitaries from 30-40 male Sprague-Dawley rats (175 g) were removed aseptically after decapitation. The anterior lobes were collected, washed 3 times in sterile Hepes buffer (0.025M)(pH 7.35) and dispersed at 37° C. in 20-30 ml Hepes buffer (pH 7.35) containing collagenase (4 mg per ml) and Dispase (Protease grande II, 2 mg per ml). After gentle 80 min. vortexing and trituration by Pasteur pipette, the dispersed cells were separated by centrifugation (150×g, 4 min.) and re-suspended in Hepes buffer containing neuraminidase (4 mg/ml), and […] ethylenediaminetetraacetic acid (EDTA) disodium salt pH 7.35, for 10 min. The cells were washed twice with plating medium and plated on multiwell-plates (1.5×10^5 cells per ml) using the following defined medium: F-12/DMEM/BGJ(6:3:1) (Gibco: 430-1700/430-1600/320-2591) with 2 g BSA/L., 2.38 g Hepes/L.,50 mg Gentamycin/L (Schering Co.). The medium in each well was supplemented either with the novel peptide or natural GRF(1-44)-NH2 (SEQ ID NO: 1-NH2) at concentrations ranging from 3.1 to 200 fmol. per ml. of medium. Control wells contained no supplement. Plating was done with this medium added with 2% fetal calf serum to ensure rapid fixation of the cells. On the fourth day the cells were washed twice with the defined medium without fetal calf serum. Finally […] of defined medium was added to each well plus […] of the same medium containing each individual treatment, in triplicate. After 3 hours of incubation the medium was collected and diluted as required to conduct radioimmunoassay (RIA) for rat growth hormone. RIAs were conducted using Sinha's anti-murine GH immune serum and procedures according to the National Pituitary Agency using protein A to precipitate antibody antigen complex.

Molecule | Potency of GRF Analogs Relative to GRF(1-44)-NH2 (SEQ ID NO: 1-NH2)
CC[C@H](C)[C@H](NC(=O)[C@H](C)NC(=O)[C@H](CC(=O)O)NC(=O)[C@@H](C)NC(=O)[C@@H](N)Cc1c[nH]cn1)C(=O)N[C@@H](Cc1ccccc1)C(=O)N[C@H](C(=O)N[C@@H](CCC(N)=O)C(=O)N[C@@H](CO)C(=O)N[C@@H](Cc1ccc(O)cc1)C(=O)N[C@@H](CCCNC(=N)N)C(=O)N[C@@H](CCCCN)C(=O)N[C@H](C(=O)N[C@@H](CC(C)C)C(=O)N[C@@H](C)C(=O)N[C@@H](CCC(N)=O)C(=O)N[C@@H](CC(C)C)C(=O)N[C@@H](CO)C(=O)N[C@@H](C)C(=O)N[C@@H](CCCNC(=N)N)C(=O)N[C@@H](CCCCN)C(=O)N[C@@H](CC(C)C)C(=O)N[C@@H](CC(C)C)C(=O)N[C@@H](CCC(N)=O)C(=O)N[C@@H](CC(=O)O)C(=O)N[C@H](C(=O)N[C@@H](CC(C)C)C(=O)N[C@@H](CO)C(=O)N[C@@H](CCCNC(=N)N)C(=O)N[C@@H](CCC(N)=O)C(=O)N[C@@H](CCC(N)=O)C(=O)NCC(=O)O)[C@@H](C)CC)C(C)C)[C@@H](C)O [SEQ ID NO: 17-OH] (H-H[dA]DAIFTQSYRKVLAQLSARKLLQDILSRQQG-OH) | 3.23
CC[C@H](C)[C@H](NC(=O)[C@H](C)NC(=O)[C@H](CC(=O)O)NC(=O)[C@@H](C)NC(=O)CCc1ccc(O)cc1)C(=O)N[C@@H](Cc1ccccc1)C(=O)N[C@H](C(=O)N[C@@H](CO)C(=O)N[C@@H](CO)C(=O)N[C@@H](Cc1ccc(O)cc1)C(=O)N[C@@H](CCCNC(=N)N)C(=O)N[C@@H](CCCCN)C(=O)N[C@H](C(=O)N[C@@H](CC(C)C)C(=O)N[C@@H](C)C(=O)N[C@@H](CCC(N)=O)C(=O)N[C@@H](CC(C)C)C(=O)N[C@@H](CO)C(=O)N[C@@H](C)C(=O)N[C@@H](CCCNC(=N)N)C(=O)N[C@@H](CCCCN)C(=O)N[C@@H](CC(C)C)C(=O)N[C@@H](CC(C)C)C(=O)N[C@@H](CCC(N)=O)C(=O)N[C@@H](CC(=O)O)C(=O)N[C@H](C(=O)N[C@@H](CCSC)C(=O)N[C@@H](CO)C(=O)N[C@@H](CCCNC(=N)N)C(N)=O)[C@@H](C)CC)C(C)C)[C@@H](C)O [SEQ ID NO: 9-NH2] (Desaminotyrosyl-[dA]DAIFTSSYRKVLAQLSARKLLQDIMSR-NH2) | 3.55
CC[C@H](C)[C@H](NC(=O)[C@H](C)NC(=O)[C@H](CC(=O)O)NC(=O)[C@@H](C)NC(=O)CCc1ccc(O)cc1)C(=O)N[C@@H](Cc1ccccc1)C(=O)N[C@H](C(=O)N[C@@H](CCC(N)=O)C(=O)N[C@@H](CO)C(=O)N[C@@H](Cc1ccc(O)cc1)C(=O)N[C@@H](CCCNC(=N)N)C(=O)N[C@@H](CCCCN)C(=O)N[C@H](C(=O)N[C@@H](CC(C)C)C(=O)N[C@@H](C)C(=O)N[C@@H](CCC(N)=O)C(=O)N[C@@H](CC(C)C)C(=O)N[C@@H](CO)C(=O)N[C@@H](C)C(=O)N[C@@H](CCCNC(=N)N)C(=O)N[C@@H](CCCCN)C(=O)N[C@@H](CC(C)C)C(=O)N[C@@H](CC(C)C)C(=O)N[C@@H](CCC(N)=O)C(=O)N[C@@H](CC(=O)O)C(=O)N[C@H](C(=O)N[C@@H](CCSC)C(=O)N[C@@H](CO)C(=O)N[C@@H](CCCNC(=N)N)C(N)=O)[C@@H](C)CC)C(C)C)[C@@H](C)O [SEQ ID NO: 10-NH2] (Desaminotyrosyl-[dA]DAIFTQSYRKVLAQLSARKLLQDIMSR-NH2) | 4.57
CC[C@H](C)[C@H](NC(=O)[C@H](C)NC(=O)[C@H](CC(=O)O)NC(=O)[C@H](C)NC(=O)[C@@H](N)Cc1ccc(O)cc1)C(=O)N[C@@H](Cc1ccccc1)C(=O)N[C@H](C(=O)N[C@@H](CC(N)=O)C(=O)N[C@@H](CO)C(=O)N[C@@H](Cc1ccc(O)cc1)C(=O)N[C@@H](CCCNC(=N)N)C(=O)N[C@@H](CCCCN)C(=O)N[C@H](C(=O)N[C@@H](CC(C)C)C(=O)NCC(=O)N[C@@H](CCC(N)=O)C(=O)N[C@@H](CC(C)C)C(=O)N[C@@H](CO)C(=O)N[C@@H](C)C(=O)N[C@@H](CCCNC(=N)N)C(=O)N[C@@H](CCCCN)C(=O)N[C@@H](CC(C)C)C(=O)N[C@@H](CC(C)C)C(=O)N[C@@H](CCC(N)=O)C(=O)N[C@@H](CC(=O)O)C(=O)N[C@H](C(=O)N[C@@H](CCSC)C(=O)N[C@@H](CO)C(=O)N[C@@H](CCCNC(=N)N)C(=O)N[C@@H](CCC(N)=O)C(=O)N[C@@H](CCC(N)=O)C(=O)NCC(=O)N[C@@H](CCC(=O)O)C(=O)N[C@@H](CO)C(=O)N[C@@H](CC(N)=O)C(=O)N[C@@H](CCC(N)=O)C(=O)N[C@@H](CCC(=O)O)C(=O)N[C@@H](CCCNC(=N)N)C(=O)NCC(=O)N[C@@H](C)C(=O)N[C@@H](CCCNC(=N)N)C(=O)N[C@@H](C)C(=O)N[C@@H](CCCNC(=N)N)C(=O)N[C@@H](CC(C)C)C(N)=O)[C@@H](C)CC)C(C)C)[C@@H](C)O [SEQ ID NO: 1-NH2, GRF(1-44)-NH2, reference compound] | 1.00

Tested on: not listed separately
Experiment: Half-life stability of GRF analogs in aqueous solution by reverse phase HPLC
Assay type: physicochemical
Settings: aqueous buffer pH 7.40 (0.25M Na2HPO4/H3PO4, 1.0 mM NaN3), 37° C., 0.15 mg/mL
Description: Half-life stability of GRF analogs in aqueous solution was determined by reverse phase HPLC at 37° C. GRF analogs were prepared as described above. GRF analogs were dissolved in […] of H2 O and then taken up in 1.0 mL of buffer solution (pH 7.40) containing 0.25M Na2 HPO4 /H3 PO4 and 1.0 mM NaN3. The concentration of the GRF analogs was 0.15 mg/mL. The HPLC system was a Laboratory Data Control (LDC) HPLC with a Waters C-18 column (3.9×300 mm, 10μ). The detector was a LDC Spectromonitor III and the gradient delivery system was a Constametric II. Mobile phase--(A) 0.025% TFA in H2 O, (B) 0.025% TFA in acetonitrile. Gradient was 0-37% (B) in 15 minutes for SEQ ID NO: 8-NH2 where Xaa^1 is desNH2 Tyr and Xaa^2 is D-Ala and SEQ ID NO: 9-NH2 where Xaa^1 is desNH2 Tyr and Xaa^2 is D-Ala; 0-35% (B) in 15 minutes for SEQ ID NO: 35-NH2 where Xaa^1 is desNH2 Tyr and Xaa^2 is D-Ala; and 0-36% (B) in 15 minutes for SEQ ID NO: 10-NH2 where Xaa^1 is desNH2 Tyr and Xaa^2 is D-Ala. Flow rate for all gradients was 2 ml/minute. Detection was at 206 nm using a UV detector.

Molecule | HALF-LIFE t(1/2) [h]
CC[C@H](C)[C@H](NC(=O)[C@H](C)NC(=O)[C@H](CC(=O)O)NC(=O)[C@@H](C)NC(=O)CCc1ccc(O)cc1)C(=O)N[C@@H](Cc1ccccc1)C(=O)N[C@H](C(=O)N[C@@H](CCC(N)=O)C(=O)N[C@@H](CO)C(=O)N[C@@H](Cc1ccc(O)cc1)C(=O)N[C@@H](CCCNC(=N)N)C(=O)N[C@@H](CCCCN)C(=O)N[C@H](C(=O)N[C@@H](CC(C)C)C(=O)N[C@@H](C)C(=O)N[C@@H](CCC(N)=O)C(=O)N[C@@H](CC(C)C)C(=O)N[C@@H](CO)C(=O)N[C@@H](C)C(=O)N[C@@H](CCCNC(=N)N)C(=O)N[C@@H](CCCCN)C(=O)N[C@@H](CC(C)C)C(=O)N[C@@H](CC(C)C)C(=O)N[C@@H](CCC(N)=O)C(=O)N[C@@H](CC(=O)O)C(=O)N[C@H](C(=O)N[C@@H](CCSC)C(=O)N[C@@H](CO)C(=O)N[C@@H](CCCNC(=N)N)C(N)=O)[C@@H](C)CC)C(C)C)[C@@H](C)O [SEQ ID NO: 10-NH2] (Desaminotyrosyl-[dA]DAIFTQSYRKVLAQLSARKLLQDIMSR-NH2) | 122

Tested on: not given
Experiment: not given
Settings: products of Asn^8 deamidation of [Leu^27]-GRF(1-32)-NH2 at pH 7.4, literature; cited from earlier work

Molecule | Biological activities
[Asp^8, Leu^27 ]-GRF(1-32)-NH2 (YADAIFTDSYRKVLGQLSARKLLQDILSRQQG-NH2) [deamidation product of [Leu^27]-GRF(1-32)-NH2] | substantially reduced biological activities
